± gives the expanded uncertainty stated by the source.
Settings: 263.49 K, Liquid, Vibrating tube method

FC(F)=C(F)C(F)(F)F [hexafluoropropene]
mass density (1283.2 kPa): 1467.96 ± 1.5 kg/m3 | mass density (1321.2 kPa): 1468.22 ± 1.5 kg/m3 | mass density (1359 kPa): 1468.47 ± 1.5 kg/m3 | mass density (1389.9 kPa): 1468.56 ± 1.5 kg/m3 | mass density (1425.3 kPa): 1468.74 ± 1.5 kg/m3 | mass density (1461.6 kPa): 1468.94 ± 1.5 kg/m3 | mass density (1497.9 kPa): 1469.16 ± 1.5 kg/m3 | mass density (1539.1 kPa): 1469.32 ± 1.5 kg/m3 | mass density (1576.4 kPa): 1469.48 ± 1.5 kg/m3 | mass density (1610 kPa): 1469.68 ± 1.5 kg/m3 | mass density (1646.8 kPa): 1469.96 ± 1.5 kg/m3 | mass density (1683.2 kPa): 1470.1 ± 1.5 kg/m3 | mass density (1718.2 kPa): 1470.09 ± 1.5 kg/m3 | mass density (1769.7 kPa): 1470.55 ± 1.5 kg/m3 | mass density (1804.7 kPa): 1470.64 ± 1.5 kg/m3 | mass density (1839 kPa): 1470.88 ± 1.5 kg/m3 | mass density (1873.5 kPa): 1471.02 ± 1.5 kg/m3 | mass density (1912.3 kPa): 1471.22 ± 1.5 kg/m3 | mass density (1948.3 kPa): 1471.32 ± 1.5 kg/m3 | mass density (1983.7 kPa): 1471.42 ± 1.5 kg/m3 | mass density (2017.6 kPa): 1471.69 ± 1.5 kg/m3 | mass density (2077.4 kPa): 1472.02 ± 1.5 kg/m3 | mass density (2137.9 kPa): 1472.31 ± 1.5 kg/m3 | mass density (2195.3 kPa): 1472.62 ± 1.5 kg/m3 | mass density (2252 kPa): 1472.79 ± 1.5 kg/m3 | mass density (2309.6 kPa): 1473.18 ± 1.5 kg/m3 | mass density (2367.3 kPa): 1473.43 ± 1.5 kg/m3 | mass density (2430.6 kPa): 1473.71 ± 1.5 kg/m3 | mass density (2489.1 kPa): 1474.06 ± 1.5 kg/m3 | mass density (2551.6 kPa): 1474.23 ± 1.5 kg/m3 | mass density (2614.8 kPa): 1474.71 ± 1.5 kg/m3 | mass density (2675.4 kPa): 1474.88 ± 1.5 kg/m3 | mass density (2733.4 kPa): 1475.13 ± 1.5 kg/m3 | mass density (2790.5 kPa): 1475.34 ± 1.5 kg/m3 | mass density (2848.5 kPa): 1475.67 ± 1.5 kg/m3 | mass density (2905.6 kPa): 1475.93 ± 1.5 kg/m3 | mass density (2969.6 kPa): 1476.29 ± 1.5 kg/m3 | mass density (3029.8 kPa): 1476.52 ± 1.5 kg/m3 | mass density (3093.3 kPa): 1476.76 ± 1.5 kg/m3 | mass density (3152.2 kPa): 1477.08 ± 1.5 kg/m3 | mass density (3211.2 kPa): 1477.32 ± 1.5 kg/m3 | mass density (3270.4 kPa): 1477.64 ± 1.5 kg/m3 | mass density (3327.3 kPa): 1477.91 ± 1.5 kg/m3 | mass density (3384.6 kPa): 1478.13 ± 1.5 kg/m3 | mass density (3443.8 kPa): 1478.55 ± 1.5 kg/m3 | mass density (3501.1 kPa): 1478.67 ± 1.5 kg/m3 | mass density (3558.2 kPa): 1479.03 ± 1.5 kg/m3 | mass density (3616.7 kPa): 1479.25 ± 1.5 kg/m3 | mass density (3674.3 kPa): 1479.49 ± 1.5 kg/m3 | mass density (3737.9 kPa): 1479.79 ± 1.5 kg/m3 | mass density (3796.5 kPa): 1480.12 ± 1.5 kg/m3 | mass density (3856.1 kPa): 1480.36 ± 1.5 kg/m3 | mass density (3913.3 kPa): 1480.59 ± 1.5 kg/m3 | mass density (3976.1 kPa): 1480.92 ± 1.5 kg/m3 | mass density (4010.9 kPa): 1481.02 ± 1.5 kg/m3 | mass density (4071.8 kPa): 1481.39 ± 1.5 kg/m3 | mass density (4136 kPa): 1481.55 ± 1.5 kg/m3 | mass density (4197.2 kPa): 1481.92 ± 1.5 kg/m3 | mass density (4261.2 kPa): 1482.25 ± 1.5 kg/m3 | mass density (4322.1 kPa): 1482.4 ± 1.5 kg/m3 | mass density (4382.2 kPa): 1482.79 ± 1.5 kg/m3 | mass density (4447.1 kPa): 1482.98 ± 1.5 kg/m3 | mass density (4507.5 kPa): 1483.36 ± 1.5 kg/m3 | mass density (4568.4 kPa): 1483.61 ± 1.5 kg/m3 | mass density (4635.4 kPa): 1483.93 ± 1.5 kg/m3 | mass density (4696.7 kPa): 1484.25 ± 1.5 kg/m3 | mass density (4757 kPa): 1484.43 ± 1.5 kg/m3 | mass density (4816.4 kPa): 1484.73 ± 1.5 kg/m3 | mass density (4881.5 kPa): 1484.9 ± 1.5 kg/m3 | mass density (4946.3 kPa): 1485.39 ± 1.5 kg/m3 | mass density (5104.8 kPa): 1485.97 ± 1.5 kg/m3 | mass density (5190.1 kPa): 1486.45 ± 1.5 kg/m3 | mass density (5273.8 kPa): 1486.72 ± 1.5 kg/m3 | mass density (5369.3 kPa): 1487.1 ± 1.5 kg/m3 | mass density (5456.3 kPa): 1487.53 ± 1.5 kg/m3 | mass density (5538.4 kPa): 1487.84 ± 1.5 kg/m3 | mass density (5622.6 kPa): 1488.18 ± 1.5 kg/m3 | mass density (5711.1 kPa): 1488.61 ± 1.5 kg/m3 | mass density (5793.3 kPa): 1489.06 ± 1.5 kg/m3 | mass density (5877.9 kPa): 1489.31 ± 1.5 kg/m3 | mass density (5963.2 kPa): 1489.67 ± 1.5 kg/m3 | mass density (6047.6 kPa): 1490.11 ± 1.5 kg/m3 | mass density (6129.9 kPa): 1490.42 ± 1.5 kg/m3 | mass density (6210.8 kPa): 1490.7 ± 1.5 kg/m3 | mass density (6292.4 kPa): 1491.15 ± 1.5 kg/m3 | mass density (6372.6 kPa): 1491.45 ± 1.5 kg/m3 | mass density (6452.8 kPa): 1491.79 ± 1.5 kg/m3 | mass density (6538.6 kPa): 1492.18 ± 1.5 kg/m3 | mass density (6628.4 kPa): 1492.5 ± 1.5 kg/m3 | mass density (6710.5 kPa): 1492.84 ± 1.5 kg/m3 | mass density (6798.1 kPa): 1493.29 ± 1.5 kg/m3 | mass density (6878.8 kPa): 1493.62 ± 1.5 kg/m3 | mass density (6965.4 kPa): 1493.98 ± 1.5 kg/m3 | mass density (7052.5 kPa): 1494.32 ± 1.5 kg/m3 | mass density (7137.8 kPa): 1494.61 ± 1.5 kg/m3 | mass density (7224.6 kPa): 1495 ± 1.5 kg/m3 | mass density (7315.1 kPa): 1495.44 ± 1.5 kg/m3 | mass density (7400.9 kPa): 1495.77 ± 1.5 kg/m3 | mass density (7483.2 kPa): 1496.09 ± 1.5 kg/m3 | mass density (7573.2 kPa): 1496.53 ± 1.5 kg/m3 | mass density (7663 kPa): 1496.86 ± 1.5 kg/m3 | mass density (7746.1 kPa): 1497.24 ± 1.5 kg/m3 | mass density (7835.3 kPa): 1497.57 ± 1.5 kg/m3 | mass density (7920.3 kPa): 1497.86 ± 1.5 kg/m3 | mass density (8008.2 kPa): 1498.24 ± 1.5 kg/m3 | mass density (8089.2 kPa): 1498.57 ± 1.5 kg/m3 | mass density (8180.4 kPa): 1498.95 ± 1.6 kg/m3 | mass density (8262.3 kPa): 1499.34 ± 1.6 kg/m3 | mass density (8343 kPa): 1499.65 ± 1.6 kg/m3 | mass density (8431 kPa): 1499.96 ± 1.6 kg/m3 | mass density (8519.4 kPa): 1500.29 ± 1.6 kg/m3 | mass density (8604.9 kPa): 1500.75 ± 1.6 kg/m3 | mass density (8687 kPa): 1500.96 ± 1.6 kg/m3 | mass density (8773.6 kPa): 1501.36 ± 1.6 kg/m3 | mass density (8859.6 kPa): 1501.69 ± 1.6 kg/m3 | mass density (8940.8 kPa): 1502.04 ± 1.6 kg/m3 | mass density (9033.4 kPa): 1502.38 ± 1.6 kg/m3 | mass density (9121.4 kPa): 1502.79 ± 1.6 kg/m3 | mass density (9202.4 kPa): 1503.09 ± 1.6 kg/m3 | mass density (9288.6 kPa): 1503.44 ± 1.6 kg/m3 | mass density (9371.7 kPa): 1503.79 ± 1.6 kg/m3 | mass density (9460.9 kPa): 1504.15 ± 1.6 kg/m3 | mass density (9501.4 kPa): 1504.21 ± 1.6 kg/m3 | mass density (9543.4 kPa): 1504.4 ± 1.6 kg/m3 | mass density (9588.9 kPa): 1504.56 ± 1.6 kg/m3 | mass density (9629.7 kPa): 1504.74 ± 1.6 kg/m3 | mass density (9675.2 kPa): 1504.91 ± 1.6 kg/m3 | mass density (9717.5 kPa): 1505.02 ± 1.6 kg/m3 | mass density (9760.3 kPa): 1505.19 ± 1.6 kg/m3 | mass density (9806 kPa): 1505.39 ± 1.6 kg/m3 | mass density (9849.5 kPa): 1505.65 ± 1.6 kg/m3 | mass density (9893.1 kPa): 1505.74 ± 1.6 kg/m3 | mass density (9933.7 kPa): 1505.89 ± 1.6 kg/m3
